Measured values taken from ChEMBL document CHEMBL5625235, “Discovery of X10g as a selective PROTAC degrader of Hsp90α protein for treating breast cancer” (Eur J Med Chem, 2023).
Calls of active or inactive are those of the source. No cut-off for these calls is given here.

How the values were obtained:
MX1 = assay: Antiproliferative activity against human MX1 cells assessed as inhibition of cell proliferation incubated for 72 hrs by MTT assay; type: functional, cell-based; details: MX1, 72 h
MDA-MB-468 = assay: Antiproliferative activity against human MDA-MB-468 cells assessed as inhibition of cell proliferation incubated for 72 hrs by MTT assay; type: functional, cell-based; details: MDA-MB-468, 72 h
MCF7 [1] = assay: Antiproliferative activity against human MCF7 cells assessed as inhibition of cell proliferation incubated for 72 hrs by MTT assay; type: functional, cell-based; details: MCF7, 72 h
MDA-MB-231 = assay: Antiproliferative activity against human MDA-MB-231 cells assessed as inhibition of cell proliferation incubated for 72 hrs by MTT assay; type: functional, cell-based; details: MDA-MB-231, 72 h
[2] = AUC(0 to infinity) in rat at 15 mg/kg, ip administered as single dose and measured at 5 to 480 mins by LC-MS analysis; type: ADME, organism-based; details: in vivo, time 5-480 min
[3] = Cmax in rat at 15 mg/kg, ip administered as single dose and measured at 5 to 480 mins by LC-MS analysis; type: ADME, organism-based; details: in vivo, time 5-480 min
[4] = molecular target: T1, Protein cereblon/Heat shock protein HSP 90-alpha (Homo sapiens, UniProt P07900+Q96SW2); assay: PROTAC activity at CRBN/HSP90alpha in human MCF7 cells assessed as induction of HSP90alpha degradation at 0.5 uM incubated for 8 hrs in presence of MG132 by Western blot analysis; type: cell-based
[5] = molecular target: T2, Protein cereblon/Heat shock protein HSP 90-beta (Homo sapiens) (UniProt P08238+Q96SW2); assay: PROTAC activity at CRBN/HSP90beta in human MCF7 cells assessed as induction of HSP90beta degradation at 0.5 uM incubated for 8 hrs by Western blot analysis; type: cell-based
[6] = Toxicity in BALB/c mouse implanted with mouse 4T1 cells assessed as effect on body weight at 60 mg/kg, ip administered daily for 20 days; type: organism-based; details: in vivo, 480 h, time 20 day
[7] = molecular target: T1, Protein cereblon/Heat shock protein HSP 90-alpha; assay: PROTAC activity at CRBN/HSP90alpha in human MCF7 cells assessed as induction of HSP90alpha degradation at 0.5 uM incubated for 8 hrs by Western blot analysis; type: cell-based
[8] = molecular target: T1, Protein cereblon/Heat shock protein HSP 90-alpha; assay: PROTAC activity at CRBN/HSP90alpha in human MCF7 cells assessed as induction of HSP90alpha degradation by measuring maximal efficacy at 0.1 to 5 uM incubated for 8 hrs by Western blot analysis relative to control; type: cell-based; details: dose 0.1-5 µM
[9] = molecular target: T1, Protein cereblon/Heat shock protein HSP 90-alpha; assay: PROTAC activity at CRBN/HSP90alpha in human MCF7 cells assessed as induction of HSP90alpha degradation by measuring maximal efficacy at high concentration incubated for 8 hrs by Western blot analysis; type: cell-based
[10] = molecular target: T1, Protein cereblon/Heat shock protein HSP 90-alpha; assay: Binding affinity to CRBN/HSP90alpha (unknown origin) assessed as ternary complex formation; type: protein assay
[11] = AUCall in rat at 15 mg/kg, ip administered as single dose and measured at 5 to 480 mins by LC-MS analysis; type: ADME, organism-based; details: in vivo, time 5-480 min
[12] = molecular target: T1, Protein cereblon/Heat shock protein HSP 90-alpha; assay: PROTAC activity at CRBN/HSP90alpha in human MCF7 cells assessed as induction of HSP90alpha degradation at 0.5 uM incubated for 8 hrs in presence of MLN4924 by Western blot analysis; type: cell-based
[13] = Toxicity in BALB/c mouse implanted with mouse 4T1 cells assessed as mortality at 60 mg/kg, ip administered daily for 20 days; type: organism-based; details: in vivo, 480 h, time 20 day
[14] = molecular target: T1, Protein cereblon/Heat shock protein HSP 90-alpha; assay: PROTAC activity at CRBN/HSP90alpha in human MCF7 cells assessed as induction of HSP90alpha degradation at 0.5 uM incubated for 8 hrs in presence of pomalidomide by Western blot analysis; type: cell-based
[15] = molecular target: T1, Protein cereblon/Heat shock protein HSP 90-alpha; assay: PROTAC activity at CRBN/HSP90alpha in human MCF7 cells assessed as induction of survivin degradation at 0.5 uM incubated for 8 hrs by Western blot analysis; type: cell-based
[16] = Half-life in rat at 15 mg/kg, ip administered as single dose and measured at 5 to 480 mins by LC-MS analysis; type: ADME, organism-based; details: in vivo, time 5-480 min
[17] = molecular target: T1, Protein cereblon/Heat shock protein HSP 90-alpha; assay: PROTAC activity at CRBN/HSP90alpha in human MCF7 cells assessed as induction of HSP90alpha degradation incubated for 8 hrs by Western blot analysis; type: cell-based
[18] = molecular target: T1, Protein cereblon/Heat shock protein HSP 90-alpha; assay: PROTAC activity at CRBN/HSP90alpha in human MCF7 cells assessed as induction of HSP90alpha degradation at 0.5 uM incubated for 8 hrs in presence of AT13387 by Western blot analysis; type: cell-based
[19] = Tmax in rat at 15 mg/kg, ip administered as single dose and measured at 5 to 480 mins by LC-MS analysis; type: ADME, organism-based; details: in vivo, time 5-480 min
[20] = molecular target: T2, Protein cereblon/Heat shock protein HSP 90-beta (Homo sapiens); assay: PROTAC activity at CRBN/HSP90beta in human MCF7 cells assessed as induction of CDK4 degradation at 0.5 uM incubated for 8 hrs by Western blot analysis; type: cell-based
4T1 [21] = assay: Antitumor activity against mouse 4T1 cells implanted in BALB/c mouse assessed as reduction in tumor weight at 60 mg/kg, ip administered daily for 20 days; type: functional, organism-based; details: time 20.0 day
4T1 [22] = assay: Antitumor activity against mouse 4T1 cells implanted in BALB/c mouse assessed as tumor growth inhibition at 60 mg/kg, ip administered daily for 20 days relative to control; type: functional; details: 4T1, 480 h, time 20 day, read-out: TGI
[23] = molecular target: Heat shock protein HSP 90-beta (Homo sapiens, UniProt P08238); assay: Inhibition of HSP90beta (unknown origin) incubated for 24 hrs by fluorescence polarization assay
MCF7 [24] = assay: Potency index, ratio of AT13387 IC50 to test compound IC50 for antiproliferative activity against human MCF7 cells assessed as inhibition of cell proliferation incubated for 72 hrs by MTT assay; type: functional
[25] = molecular target: Heat shock protein HSP 90-alpha (Homo sapiens, UniProt P07900); assay: Induction of HSP90alpha degradation in human MCF7 cells at 0.5 uM incubated for 8 hrs by Western blot analysis; type: cell-based

Sequence of Heat shock protein HSP 90-beta (P08238 whole entry): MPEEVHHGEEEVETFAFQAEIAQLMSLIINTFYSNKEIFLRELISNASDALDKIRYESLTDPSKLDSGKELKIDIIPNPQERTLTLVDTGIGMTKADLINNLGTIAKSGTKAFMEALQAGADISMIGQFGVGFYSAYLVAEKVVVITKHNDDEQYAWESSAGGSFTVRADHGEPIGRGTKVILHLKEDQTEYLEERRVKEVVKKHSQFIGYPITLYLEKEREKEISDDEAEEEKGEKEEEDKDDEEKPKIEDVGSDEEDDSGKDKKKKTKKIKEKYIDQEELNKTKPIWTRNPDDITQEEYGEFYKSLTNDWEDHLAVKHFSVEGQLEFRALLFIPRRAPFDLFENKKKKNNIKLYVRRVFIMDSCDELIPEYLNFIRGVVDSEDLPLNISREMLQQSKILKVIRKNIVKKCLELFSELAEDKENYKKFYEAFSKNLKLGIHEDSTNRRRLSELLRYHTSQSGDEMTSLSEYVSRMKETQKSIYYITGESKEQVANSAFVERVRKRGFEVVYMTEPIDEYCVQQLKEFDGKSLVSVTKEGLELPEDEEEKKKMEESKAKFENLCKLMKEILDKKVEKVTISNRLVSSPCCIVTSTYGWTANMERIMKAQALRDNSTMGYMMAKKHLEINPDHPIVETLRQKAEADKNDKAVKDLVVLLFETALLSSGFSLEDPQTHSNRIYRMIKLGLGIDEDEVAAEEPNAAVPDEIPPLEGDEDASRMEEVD

Row | SMILES | IC50 (MX1) [µM] | IC50 (MDA-MB-468) [µM] | IC50 (MCF7 [1]) [µM] | IC50 (MDA-MB-231) [µM] | Activity [5] | Activity [7] | further results
1 | CC(C)c1cc(C(=O)N2Cc3ccc(CN4CCN(CCCC(=O)Nc5cccc6c5C(=O)N(C5CCC(=O)NC5=O)C6=O)CC4)cc3C2)ccc1O (centres undefined) | 40.8 | 41.6 | 7.5 | 72.8 |  |  | 
2 | CC(C)c1cc(C(=O)N2Cc3ccc(CN4CCN(CCCCCCC(=O)Nc5cccc6c5C(=O)N(C5CCC(=O)NC5=O)C6=O)CC4)cc3C2)ccc1O (centres undefined) | 12 | 16.5 | 8.93 | 51.5 | inactive | Active | AUC(0-inf) [2]: 758 ng·h/mL; Cmax [3]: 302 ng/mL; Activity [4]: inactive; Activity [6]: Non-Toxic; Emax [8]: 66.4%; Activity [9]: inactive; Activity [10]: Active; AUC [11]: 703 ng·h/mL; Activity [12]: inactive; Activity [13]: Non-Toxic; Activity [14]: inactive; Activity [15]: Active; half-life [16]: 2.5 h; DC50 [17]: 0.295 µM; Activity [18]: inactive; Tmax [19]: 0.6 h; Activity [20]: inactive; Activity (4T1 [21]): Active; inhibition in vivo at 60 mg/kg (4T1 [22]): 54%
3 | CC(C)c1cc(C(=O)N2Cc3ccc(CN4CCN(CCCCCC(=O)Nc5cccc6c5C(=O)N(C5CCC(=O)NC5=O)C6=O)CC4)cc3C2)ccc1O (centres undefined) | 34.6 | 30.1 | 30.5 | 71.8 |  |  | 
4 | CC(C)c1cc(C(=O)N2Cc3ccc(CN4CCN(CCCC(=O)Nc5cccc6c5C(=O)N(C5CCC(=O)NC5=O)C6=O)CC4)cc3C2)c(O)cc1O (centres undefined) | 0.22 | 3.03 | 0.02 | 2.04 | inactive | inactive | 
5 | CC(C)c1cc(C(=O)N2Cc3ccc(CN4CCN(C(=O)CCCCNc5cccc6c5CN(C5CCC(=O)NC5=O)C6=O)CC4)cc3C2)c(O)cc1O (centres undefined) | 2.02 | 13.2 | 1.3 | 4.3 | inactive | inactive | 
6 | CC(C)c1cc(C(=O)N2Cc3ccccc3C2)c(O)cc1O |  |  |  |  |  |  | IC50 [23]: 0.004 µM
7 | CC(C)c1cc(C(=O)N2Cc3ccc(CN4CCN(CCC(=O)Nc5cccc6c5C(=O)N(C5CCC(=O)NC5=O)C6=O)CC4)cc3C2)c(O)cc1O (centres undefined) | 0.09 | 6.19 | 0.03 | 6.8 | inactive | inactive | Ratio IC50 (MCF7 [24]): ~35
8 | CC(C)c1cc(C(=O)N2Cc3ccc(CN4CCN(CCCCC(=O)Nc5cccc6c5C(=O)N(C5CCC(=O)NC5=O)C6=O)CC4)cc3C2)ccc1O (centres undefined) | 76.6 | 87.1 | 48.2 | 94.2 |  |  | 
9 | CC(C)c1cc(C(=O)N2Cc3ccc(CN4CCN(CCCCCC(=O)Nc5cccc6c5C(=O)N(C5CCC(=O)NC5=O)C6=O)CC4)cc3C2)c(O)cc1O (centres undefined) | 0.03 | 27.2 | 0.58 | 5.11 | inactive | inactive | 
10 | Nc1cccc2c1C(=O)N(C1CCC(=O)NC1=O)C2=O (centres undefined) [POMALIDOMIDE] | > 100 | > 100 | > 100 | > 100 |  |  | Activity [25]: inactive
11 | CC(C)c1cc(C(=O)N2Cc3ccc(CN4CCN(C(=O)CNc5cccc6c5CN(C5CCC(=O)NC5=O)C6=O)CC4)cc3C2)c(O)cc1O (centres undefined) | 3.46 | 5.1 | 2.03 | 7.69 | inactive | inactive | 
